# Results reported in patent publication US20110124787A1, “RUBBER COMPOSITION” (BRIDGESTONE CORPORATION, priority 2008, published 2011).
row,SMILES,melting point [°C]
1,CCN(Sc1nc2ccccc2s1)C(C)(C)C [N-ethyl-N-t-butylbenzothiazole-2-sulfenamide],60 to 61
2,CN(Sc1nc2ccccc2s1)C(C)(C)C [N-methyl-N-t-butylbenzothiazole-2-sulfenamide],56 to 58
3,CCCCN(Sc1nc2ccccc2s1)C(C)(C)C [N-n-butyl-N-t-butylbenzothiazole-2-sulfenamide],55 to 56
